The values below come from article PMC6888825, “Regulation of vanillate and syringate catabolism by a MarR-type transcriptional regulator DesR in Sphingobium sp. SYK-6” (Scientific Reports, 2019).

In data set [1] the target is T1, DesR (SLG_12870) (Sphingobium sp. SYK-6, UniProt G2IQU0).
T1 construct: homodimer (42 kDa by SEC)
T1 sequence (G2IQU0 1-172): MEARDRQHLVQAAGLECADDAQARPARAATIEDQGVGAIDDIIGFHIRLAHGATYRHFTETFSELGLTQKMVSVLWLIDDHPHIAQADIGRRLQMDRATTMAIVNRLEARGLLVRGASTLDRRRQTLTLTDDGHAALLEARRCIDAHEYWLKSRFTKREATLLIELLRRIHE
The experiment in a line: EMSA, inhibition of DNA binding by purified DesR. The settings on record: effector (derepression); […] DesR, […] DIG-labelled desB, ligM or desR upstream probes, […] compound, pH […] °C.

Data set [2] deals with DesR, MarR-type transcriptional regulator (SLG_12870) of Sphingobium sp. SYK-6, His tag-fused (Sphingobium sp. SYK-6). The experiment in a line: SEC; purified DesR (ca. 400 µg) on Superdex 200 Increase 10/300GL, 10 mM KH2PO4-K2HPO4 buffer (pH 7.4) with 140 mM NaCl, 1.0 ml/min; mass estimated against gel-filtration calibration kits (HMW and LMW).
The subject of data set [3] is T2, DesR (His-DesR) (Sphingobium sp. SYK-6), ORF:abc5f351.
T2 sequence: T1 sequence (G2IQU0 1-172)
The experiment in a line: EMSA. The settings on record: EMSA: 20 mM HEPES pH 7.6, 1 mM EDTA, 10 mM (NH4)2SO4, 1 mM DTT, 0.2% Tween 20, 30 mM KCl, 1 ug poly[d(I-C)], 500 pM probe, 20 C, 20 min. For orientation: Mobility shift assays separate free from complexed probe on a gel.

`COc1cc(C(=O)O)cc(OC)c1O` [SA, syringate]: the “EMSA, inhibition of DNA binding by purified DesR” value in data set [1] is given as “decrease in the shift bands of the three probes was also observed in a concentration-dependent manner”.

In the case of `COc1cc(C(=O)O)ccc1O` [VA, vanillate], in data set [1], the “EMSA, inhibition of DNA binding by purified DesR” value was “In the presence of VA, shift bands of these three probes decreased in a concentration-dependent manner”.

By stoichiometry N is commonly meant the number of molecules, sites or subunits per partner or assembly. Take “DesR, MarR-type transcriptional regulator (SLG_12870) of Sphingobium sp. SYK-6, His tag-fused (natural protein)”: in data set [2], the stoichiometry N is 2.

As to “GCCGTTCCCCTCTCAGGCGCTCGAGATCGACAAAGGTCCGCGCCTTGCGCCGGATCAAGGACAGAGCTTGGCCGTGGACGGCCCGGAGTGACCGGATTTTCCGGCCGGTTTCACGCACTGCCCATTCGAAAAAATTTCGTTTGTGTCACATACAGAAGTTCGGCAGTCTGCCGGCATTGCTCAGCACCGGGCGGACCCGGAAGCCGAACATGCAGGAGAGGTCATATGGCAAAGATCATCGGCGGTTT (double strand) [desBp1]”, the binding entry in data set [3] is recorded as “binds”.
